For data set [1], the system named is Staphylococcus aureus. Kind of data set: Antimicrobial activity against methicillin-susceptible Staphylococcus aureus Smith diffuse infected in Wistar rat assessed as reduction in infection administered as solution by soaking of graft after 7 days relative to control. It is filed as functional, organism-based.
Data set [2] concerns Rattus norvegicus. Kind of data set: Toxicity in Wistar rat infected with methicillin-susceptible Staphylococcus aureus Smith diffuse assessed as anorexia administered as solution by soaking of graft after 7 days. The following applies: in vivo, other, 168 h. It counts as organism-based.
Data set [3] has as its system Staphylococcus aureus. Description: Antimicrobial activity against methicillin-susceptible Staphylococcus aureus Smith diffuse assessed as inhibition of biofilm formation by cell-based microbroth dilution method. It is filed as functional.
Data set [4] deals with Rattus norvegicus. Kind of data set: Toxicity in Wistar rat infected with methicillin-susceptible Staphylococcus aureus Smith diffuse assessed as perigraft inflammation administered as solution by soaking of graft after 7 days. It counts as organism-based. The note with it: in vivo, other, 168 h.
Data set [5] has as its system Rattus norvegicus. Description: Toxicity in Wistar rat infected with methicillin-susceptible Staphylococcus aureus Smith diffuse assessed as vomiting administered as solution by soaking of graft after 7 days. It is filed as organism-based. The following applies: in vivo, other, 168 h.
In data set [6] the test system is Rattus norvegicus. Description: Toxicity in Wistar rat infected with methicillin-susceptible Staphylococcus aureus Smith diffuse assessed as diarrhea administered as solution by soaking of graft after 7 days. It counts as organism-based. The note with it: in vivo, other, 168 h.
Data set [7] deals with Rattus norvegicus. Kind of data set: Toxicity in Wistar rat infected with methicillin-susceptible Staphylococcus aureus Smith diffuse assessed as mortality administered as solution by soaking of graft after 7 days. It is filed as organism-based. The following applies: in vivo, other, 168 h.
In data set [8] the test system is Rattus norvegicus. Description: Toxicity in Wistar rat infected with methicillin-susceptible Staphylococcus aureus Smith diffuse assessed as behavioral alterations administered as solution by soaking of graft after 7 days. It is filed as organism-based. The note with it: in vivo, other, 168 h.
For data set [9], the system named is Rattus norvegicus. Kind of data set: Toxicity in Wistar rat infected with methicillin-susceptible Staphylococcus aureus Smith diffuse assessed as diarrhea at 7 mg/kg administered as solution by soaking of graft after 7 days. It counts as organism-based. Further details: dose 7 mg/kg. The following applies: in vivo, other, 168 h.
Data set [10] relates to Rattus norvegicus. Description: Toxicity in Wistar rat infected with methicillin-susceptible Staphylococcus aureus Smith diffuse assessed as vomiting at 7 mg/kg administered as solution by soaking of graft after 7 days. It is filed as organism-based. Further details: dose 7 mg/kg. The following applies: in vivo, other, 168 h.
In data set [11] the test system is Rattus norvegicus. Description: Toxicity in Wistar rat infected with methicillin-susceptible Staphylococcus aureus Smith diffuse assessed as anorexia at 7 mg/kg administered as solution by soaking of graft after 7 days. It is filed as organism-based. Further details: dose 7 mg/kg. The following applies: in vivo, other, 168 h.
Data set [12] concerns Rattus norvegicus. Description: Toxicity in Wistar rat infected with methicillin-susceptible Staphylococcus aureus Smith diffuse assessed as mortality at 7 mg/kg administered as solution by soaking of graft after 7 days. It is filed as organism-based. The note with it: in vivo, other, 168 h. Further details: dose 7 mg/kg.
Data set [13] has as its system Rattus norvegicus. Description: Toxicity in Wistar rat infected with methicillin-susceptible Staphylococcus aureus Smith diffuse assessed as behavioral alterations at 7 mg/kg administered as solution by soaking of graft after 7 days. It is filed as organism-based. The following applies: in vivo, other, 168 h. Further details: dose 7 mg/kg.
For data set [14], the system named is Rattus norvegicus. Kind of data set: Toxicity in Wistar rat infected with methicillin-susceptible Staphylococcus aureus Smith diffuse assessed as perigraft inflammation at 7 mg/kg administered as solution by soaking of graft after 7 days. It is filed as organism-based. Further details: dose 7 mg/kg. The following applies: in vivo, other, 168 h.

The source of these data is ChEMBL document CHEMBL3132765, “Discovery of novel RIP derivatives by alanine scanning for the treatment of S. aureus infections” (Medchemcomm, 2013).

Values after ≈ are worked out from the molar mass of the structure shown. Active and inactive are the calls of the source. The calls are words filed in the database; no cut-off is given here. Peptide text beside a SMILES is read from it.

H-YSPWTNF-NH2: the outcome in the data set on Staphylococcus aureus [1] was Active.

As for H-YSPATNF-NH2, the Activity result in the data set on Rattus norvegicus [2], in the data set with Rattus norvegicus [4], in the data set on Rattus norvegicus [5], with Rattus norvegicus [6], in the data set with Rattus norvegicus [7] and with Rattus norvegicus [8] was “Non-toxic” in each case. Besides, the MIC with Staphylococcus aureus [3] was greater than 128 µg/mL. For the same compound, the result in the data set with Staphylococcus aureus [1] was Active.

With `C[C@@H](O)[C@H](NC(=O)[C@H](Cc1c[nH]c2ccccc12)NC(=O)[C@@H]1CCCN1C(=O)[C@@H](N)CO)C(N)=O` (H-SPWT-NH2), the Activity result in the data set on Rattus norvegicus [2], in the data set with Rattus norvegicus [4], with Rattus norvegicus [5], with Rattus norvegicus [6], in the data set on Rattus norvegicus [7] and in the data set with Rattus norvegicus [8] was “Non-toxic” each time. The MIC in the data set with Staphylococcus aureus [3] was greater than 128 µg/mL. The outcome in the data set on Staphylococcus aureus [1] was Active.

Take H-YSPWTAF-NH2: the Activity result in the data set with Rattus norvegicus [2], in the data set with Rattus norvegicus [4], in the data set with Rattus norvegicus [5], in the data set with Rattus norvegicus [6], in the data set with Rattus norvegicus [7] and with Rattus norvegicus [8] was “Non-toxic” each time. In the data set with Staphylococcus aureus [3], the MIC was greater than 128 µg/mL. The outcome in the data set on Staphylococcus aureus [1] was Active.

For the compound H-YAPWTNF-NH2, the Activity entry in the data set with Rattus norvegicus [2], in the data set on Rattus norvegicus [4], in the data set with Rattus norvegicus [5], with Rattus norvegicus [6], in the data set with Rattus norvegicus [7] and in the data set with Rattus norvegicus [8] was “Non-toxic” each time. The MIC in the data set on Staphylococcus aureus [3] was greater than 128 µg/mL. Also, in the data set on Staphylococcus aureus [1], the result was Active.

H-YSPWANF-NH2: the Activity result in the data set on Rattus norvegicus [2], in the data set on Rattus norvegicus [4], in the data set with Rattus norvegicus [5], in the data set on Rattus norvegicus [6], in the data set with Rattus norvegicus [7] and with Rattus norvegicus [8] was “Non-toxic” in each case. Moreover, the MIC with Staphylococcus aureus [3] is greater than 128 µg/mL. Besides, the outcome in the data set with Staphylococcus aureus [1] was Active.

For H-ASPWTNF-NH2, the Activity entry with Rattus norvegicus [2], with Rattus norvegicus [4], in the data set on Rattus norvegicus [5], in the data set on Rattus norvegicus [6], with Rattus norvegicus [7] and with Rattus norvegicus [8] was “Non-toxic” throughout. In addition, the MIC with Staphylococcus aureus [3] was greater than 128 µg/mL. Also, in the data set on Staphylococcus aureus [1], the outcome was Active.

As for `C[C@@H](O)[C@H](NC(=O)[C@@H](N)Cc1c[nH]c2ccccc12)C(=O)N[C@@H](CC(N)=O)C(=O)N[C@@H](Cc1ccccc1)C(N)=O` (H-WTNF-NH2), the Activity entry in the data set with Rattus norvegicus [2], in the data set on Rattus norvegicus [4], in the data set on Rattus norvegicus [5], in the data set with Rattus norvegicus [6], with Rattus norvegicus [7] and in the data set with Rattus norvegicus [8] was “Non-toxic” in each case. Also, the MIC with Staphylococcus aureus [3] is greater than 128 µg/mL. Further, in the data set with Staphylococcus aureus [1], the result was Active.

For the compound `C[C@@H](O)[C@H](NC(=O)[C@H](Cc1c[nH]c2ccccc12)NC(=O)[C@@H]1CCCN1)C(=O)N[C@@H](CC(N)=O)C(N)=O` (H-PWTN-NH2), the Activity result with Rattus norvegicus [2], in the data set with Rattus norvegicus [4], with Rattus norvegicus [5], in the data set with Rattus norvegicus [6], in the data set on Rattus norvegicus [7] and in the data set with Rattus norvegicus [8] was “Non-toxic” each time. The MIC in the data set on Staphylococcus aureus [3] was greater than 128 µg/mL. Besides, the outcome in the data set with Staphylococcus aureus [1] was Active.

As to H-YSPWTNA-NH2, the Activity entry in the data set on Rattus norvegicus [2], in the data set with Rattus norvegicus [4], in the data set on Rattus norvegicus [5], with Rattus norvegicus [6], in the data set on Rattus norvegicus [7] and in the data set with Rattus norvegicus [8] was “Non-toxic” throughout. Further, in the data set on Staphylococcus aureus [3], the MIC was greater than 128 µg/mL. Also, the outcome in the data set with Staphylococcus aureus [1] was Active.

`CCCCCCCCCC(=O)N[C@@H](Cc1c[nH]c2ccccc12)C(=O)N[C@H](CC(N)=O)C(=O)N[C@@H](CC(=O)O)C(=O)N[C@@H]1C(=O)NCC(=O)N[C@@H](CCCN)C(=O)N[C@@H](CC(=O)O)C(=O)N[C@H](C)C(=O)N[C@@H](CC(=O)O)C(=O)NCC(=O)N[C@H](CO)C(=O)N[C@@H]([C@H](C)CC(=O)O)C(=O)N[C@@H](CC(=O)c2ccccc2N)C(=O)O[C@@H]1C`: the MIC in the data set on Staphylococcus aureus [3] came out at 4 µg/mL (≈ 2.47 µM). Besides, the Activity entry in the data set with Rattus norvegicus [9], with Rattus norvegicus [10], in the data set on Rattus norvegicus [11], with Rattus norvegicus [12], in the data set with Rattus norvegicus [13] and with Rattus norvegicus [14] was “Non-toxic” in each case.

Turning to `NC(=O)[C@H](Cc1c[nH]c2ccccc12)NC(=O)[C@@H]1CCCN1C(=O)[C@H](CO)NC(=O)[C@@H](N)Cc1ccc(O)cc1` (H-YSPW-NH2), the Activity result in the data set with Rattus norvegicus [2], in the data set on Rattus norvegicus [4], in the data set with Rattus norvegicus [5], in the data set on Rattus norvegicus [6], in the data set on Rattus norvegicus [7] and with Rattus norvegicus [8] was “Non-toxic” each time. Further, the MIC with Staphylococcus aureus [3] is greater than 128 µg/mL. Moreover, the result with Staphylococcus aureus [1] was Active.

Take H-YSAWTNF-NH2: the Activity entry with Rattus norvegicus [2], with Rattus norvegicus [4], in the data set with Rattus norvegicus [5], in the data set with Rattus norvegicus [6], in the data set on Rattus norvegicus [7] and with Rattus norvegicus [8] was “Non-toxic” in each case. Also, the MIC in the data set on Staphylococcus aureus [3] was greater than 128 µg/mL. In addition, the outcome with Staphylococcus aureus [1] was Active.
